From patent US4151273A, “Increasing the absorption rate of insoluble drugs” (priority 1978, dated 1979)
Values after ≈ are worked out from the molar mass of the structure shown. “Also recorded” adds a separate entry of the source.

What was measured:
Format in all cases: physicochemical
[1] = Dissolution rate study of griseofulvin compositions (saturation dissolution apparatus); settings: for 20% dissolution time: 5 mg gris in 500 ml water at 25°, 100 r.p.m.
Experimental: A recycling and automatic recording system was used for all dissolution rate studies. The dissolution rate of gris in different physical forms were run in 500 ml. distilled water in a 600 ml. beaker at room temperature.
Unless otherwise specified, samples of 80 to 200 mesh powder were transferred directly into the dissolution medium and stirred with a stainless steel paddle. The paddle, 5.5 × 2.7 cm., was placed at the center of a 500 ml. dissolution medium and rotated at a rate of 100 r.p.m. The solution was pumped by a peristatic pump (Multi-speed Transmission, model No. 6000-000, available from the Harvard Apparatus Co., Dover, Mass.) at a rate of 80 to 100 ml./min. through a glass filter stick to a 1-cm. flow cell and then back to the dissolution apparatus. The absorbance of the solution is monitored by a recording Beckman DB spectrophotometer at either the miximum peak of gris, 292 mu., or minimum absorbance, 272 mu. depending upon the concentration of gris. In the system of gris-PEG 20,000, 324 mu. was used because of possible interference of absorption by the polymer at 272 mu. The volume of the solution in the tubing of the recycling system is about 10 ml. At the flow rate used, the monitored absorbance will reach 90% of the equilibrium valve in 15 sec. Therefore, the lag time in the measurement of dissolution rate is essentially negligible. In the study of the dissolution rate at room temperature, the water is preadjusted to 25° C. The ambient temperature of the room ranged less than 2° from this temperature.
Samples of micronized gris and of gris of 100 to 200 mesh particle size distribution were also run. […] All samples were run in duplicate.
^a Five milligrams gris in 500 ml. of water at 25°.
^b Dissolution times taken from recorded absorbance readings.

[2] = Solubility of griseofulvin in water; settings: 25° C., read-out: solubility of gris
[3] = Stability of gris on preparing the solid solutions (melting point, spectra, thin layer chromatography); settings: following solvent or direct fusion methods
From the text: A number of tests were made to establish that the gris was not decomposed in any manner following either the solvent or the direct fusion methods of preparing the solid solutions. The melting point, the spectra of the ultra-violet, the infrared and fluorescence are all identical to those of the gris used as a starting material.

[4] = Dissolution studies involving other materials (time for 20% dissolution); settings: in water
From the text: Dissolution studies were similarly made involving other materials.

| Compound | 20% dissolution time [1] [min] | time to 20% dissolution [4] | other results |
| --- | --- | --- | --- |
| COC1=CC(=O)C[C@@H](C)[C@]12Oc1c(Cl)c(OC)cc(OC)c1C2=O [100-200 Mesh pure gris, griseofulvin] | 60.0 |  |  |
| COC1=CC(=O)C[C@@H](C)[C@]12Oc1c(Cl)c(OC)cc(OC)c1C2=O [Micronized gris (wetted), griseofulvin] | 2.0 |  |  |
| COC1=CC(=O)C[C@@H](C)[C@]12Oc1c(Cl)c(OC)cc(OC)c1C2=O [Micronizied gris (nonwetted), griseofulvin] | 25.0 |  | dissolution rate (in words) ([1]; compared with other gris forms, wetting with 2 ml of 0.2% polysorbate (Tween 20), micronized gris): markedly slower than that of the same powder when wetted first; also recorded: almost the same dissolution rate as the 100-200 mish gris |
| COC1=CC(=O)C[C@@H](C)[C@]12Oc1c(Cl)c(OC)cc(OC)c1C2=O [gris, griseofulvin] |  |  | solubility [2]: 10 µg/mL (≈ 28.3 µM); decomposition of gris (in words) [3]: no additional spots were detected |
| CC(=O)OCC(=O)[C@@]1(O)CC[C@H]2[C@@H]3CCC4=CC(=O)CC[C@]4(C)[C@H]3[C@@H](O)C[C@@]21C [hydrocortisone acetate] |  | more than 20 minutes |  |
| C[C@]12CCC(=O)C=C1CC[C@@H]1[C@@H]2CC[C@@]2(C)[C@H]1CC[C@]2(C)O [methyltestosterone] |  | 2 min |  |
| C[C@H]1O[C@@H](O[C@H]2[C@@H](O)C[C@H](O[C@H]3[C@@H](O)C[C@H](O[C@H]4CC[C@@]5(C)[C@H](CC[C@@H]6[C@@H]5CC[C@]5(C)[C@@H](C7=CC(=O)OC7)CC[C@]65O)C4)O[C@@H]3C)O[C@@H]2C)C[C@H](O)[C@@H]1O [microcrystalline digitoxin, digitoxin] |  | about 15 minutes |  |
| CC(=O)OCC(=O)[C@@]1(O)CC[C@H]2[C@@H]3CCC4=CC(=O)C=C[C@]4(C)[C@H]3[C@@H](O)C[C@@]21C [prednisolone acetate] |  | 8 min |  |
